{"source": "paper PMC4838840", "about": "(2016)", "key": {"[1]": {"system": "ADAM10 (RNA, G4) GGGGGACGGGUAGGGGCGGGAGGUAGGGG", "experiment": "fluorescence titration", "conditions": "40 mM K+; 20 mM Tris HCl pH 7.0, 25 °C, 2 μM ThT, 1:1 fit"}, "[2]": {"system": "BCL-2 (RNA) (RNA, G4) AGGGGGCCGUGGGGUGGGAGCUGGGG", "experiment": "fluorescence titration", "conditions": "40 mM K+; 20 mM Tris HCl pH 7.0, 25 °C, 2 μM ThT, 1:1 fit"}, "[3]": {"system": "ERSI (RNA, G4) GGGUAGGGGCAAAGGGGCUGGGG", "experiment": "fluorescence titration", "conditions": "40 mM K+; 20 mM Tris HCl pH 7.0, 25 °C, 2 μM ThT, 1:1 fit"}, "[4]": {"system": "TRF2 (RNA, G4) CGGGAGGGCGGGGAGGGC", "experiment": "fluorescence titration", "conditions": "40 mM K+; 20 mM Tris HCl pH 7.0, 25 °C, 2 μM ThT, 1:1 fit"}, "[5]": {"system": "ZIC1 (RNA, G4) GGGUGGGGGGGGCGGGGGAGGCCGGGG", "experiment": "fluorescence titration", "conditions": "40 mM K+; 20 mM Tris HCl pH 7.0, 25 °C, 2 μM ThT, 1:1 fit"}, "[6]": {"system": "VEGF (RNA, G4) GGAGGAGGGGGAGGAGGA", "experiment": "fluorescence titration", "conditions": "40 mM K+; 20 mM Tris HCl pH 7.0, 25 °C, 2 μM ThT, 1:1 fit"}, "[7]": {"system": "C9orf72 (RNA) (RNA, G4) GGGGCCGGGGCCGGGGCCGGGGCC", "experiment": "fluorescence titration", "conditions": "40 mM K+; 20 mM Tris HCl pH 7.0, 25 °C, 2 μM ThT, 1:1 fit"}, "[8]": {"system": "ssAf20 (RNA) (RNA, single strand) CAAUUGUAUAUAUUCG", "experiment": "fluorescence titration", "conditions": "40 mM K+; 20 mM Tris HCl pH 7.0, 25 °C, 2 μM ThT, 1:1 fit"}, "[9]": {"system": "ssAf22 (RNA, single strand) UGAGCUUAAUUGUAUAUAUUCG", "experiment": "fluorescence titration", "conditions": "40 mM K+; 20 mM Tris HCl pH 7.0, 25 °C, 2 μM ThT, 1:1 fit"}, "[10]": {"system": "HP18 (RNA) (RNA, hairpin) CAGUACAGAUCUGUACUG", "experiment": "fluorescence titration", "conditions": "40 mM K+; 20 mM Tris HCl pH 7.0, 25 °C, 2 μM ThT, 1:1 fit"}, "[11]": {"system": "dsAf16 (RNA) (RNA, duplex) CUUAAUUGUAUAUAUUCGCGAAUAUAUACAAUUAAG", "experiment": "fluorescence titration", "conditions": "40 mM K+; 20 mM Tris HCl pH 7.0, 25 °C, 2 μM ThT, 1:1 fit"}, "[12]": {"system": "Tel22 (RNA) (RNA, G4) AGGGUUAGGGUUAGGGUUAGGG", "experiment": "fluorescence enhancement", "conditions": "40 mM K+; 20 mM Tris HCl pH 7.0, 2 μM ThT, 4 μM RNA; F/F0 440-fold"}, "[13]": {"system": "Tel22 (DNA) (DNA, G4) AGGGTTAGGGTTAGGGTTAGGG", "experiment": "fluorescence enhancement", "conditions": "40 mM K+; 20 mM Tris HCl pH 7.0; F/F0 1339-fold"}, "[14]": {"system": "BCL-2 (DNA) (DNA, G4) AGGGGGCCGTGGGGTGGGAGCTGGGG", "experiment": "fluorescence enhancement", "conditions": "40 mM K+; 20 mM Tris HCl pH 7.0; F/F0 458-fold"}, "[15]": {"system": "C9orf72 (DNA) (DNA, G4) GGGGCCGGGGCCGGGGCCGGGGCC", "experiment": "fluorescence enhancement", "conditions": "40 mM K+; 20 mM Tris HCl pH 7.0; F/F0 252-fold"}, "[16]": {"system": "ssAf20 (DNA) (DNA, single strand) CAATTGTATATATTCG", "experiment": "fluorescence enhancement", "conditions": "40 mM K+; 20 mM Tris HCl pH 7.0; F/F0 59-fold"}, "[17]": {"system": "HP18 (DNA) (DNA, hairpin) CAGTACAGATCTGTACTG", "experiment": "fluorescence enhancement", "conditions": "40 mM K+; 20 mM Tris HCl pH 7.0; F/F0 36-fold"}, "[18]": {"system": "dsAf16 (DNA) (DNA, duplex) CTTAATTGTATATATTCGCGAATATATACAATTAAG", "experiment": "fluorescence enhancement", "conditions": "40 mM K+; 20 mM Tris HCl pH 7.0; F/F0 65-fold"}, "[19]": {"system": "Spinach (RNA, aptamer) GCAGCCGGCUUGUUGAGUAGAGUGUGAGCUCCGUAACUGGUCGCGUC/GACGCGACCGAAUGAAAUGGUGAAGGACGGGUCCAGCCGGCUGC", "experiment": "fluorescence enhancement", "conditions": "40 mM K+; 20 mM Tris HCl pH 7.0, 2 μM ThT, 4 μM RNA; F/F0 487-fold"}, "[20]": {"system": "Bulges-TB1 (RNA, G4) UUGUGGUGGGUGGGUGGGU", "experiment": "fluorescence enhancement", "conditions": "40 mM K+; 20 mM Tris HCl pH 7.0, 2 μM ThT, 4 μM RNA; F/F0 196-fold"}, "[21]": {"system": "tRNA-Ala fragment (RNA, G4) GGGGGUGUAGCUCAGUGGUAGAGCGCGUGC", "experiment": "fluorescence enhancement", "conditions": "40 mM K+; 20 mM Tris HCl pH 7.0, 2 μM ThT, 4 μM RNA; F/F0 88-fold"}, "[22]": {"system": "tRNA-Cys fragment (RNA, G4) GGGGGUAUAGCUCAGUGGUAGAGCAUUUGA", "experiment": "fluorescence enhancement", "conditions": "40 mM K+; 20 mM Tris HCl pH 7.0, 2 μM ThT, 4 μM RNA; F/F0 57-fold"}}}
{"compound": "Cc1ccc2c(c1)sc(-c1ccc(N(C)C)cc1)[n+]2C", "values": [{"measurement": "K", "setting": "[1]", "value": "(2.60 ± 0.12) × 10^5 M^-1"}, {"measurement": "K", "setting": "[2]", "value": "(2.93 ± 0.27) × 10^5 M^-1"}, {"measurement": "K", "setting": "[3]", "value": "(2.03 ± 0.12) × 10^5 M^-1"}, {"measurement": "K", "setting": "[4]", "value": "(0.62 ± 0.61) × 10^5 M^-1"}, {"measurement": "K", "setting": "[5]", "value": "(0.56 ± 0.22) × 10^5 M^-1"}, {"measurement": "K", "setting": "[6]", "value": "(1.24 ± 0.15) × 10^5 M^-1"}, {"measurement": "K", "setting": "[7]", "value": "(1.92 ± 0.05) × 10^5 M^-1"}, {"measurement": "K", "setting": "[8]", "value": "(9.37 ± 1.28) × 10^4 M^-1"}, {"measurement": "K", "setting": "[9]", "value": "(5.53 ± 1.59) × 10^4 M^-1"}, {"measurement": "K", "setting": "[10]", "value": "(5.62 ± 1.94) × 10^4 M^-1"}, {"measurement": "K", "setting": "[11]", "value": "(1.43 ± 1.01) × 10^5 M^-1"}, {"measurement": "binding", "setting": "[12]", "value": "yes"}, {"measurement": "binding", "setting": "[13]", "value": "yes"}, {"measurement": "binding", "setting": "[14]", "value": "yes"}, {"measurement": "binding", "setting": "[15]", "value": "yes"}, {"measurement": "binding", "setting": "[16]", "value": "yes"}, {"measurement": "binding", "setting": "[17]", "value": "yes"}, {"measurement": "binding", "setting": "[18]", "value": "yes"}, {"measurement": "binding", "setting": "[19]", "value": "yes"}, {"measurement": "binding", "setting": "[20]", "value": "yes"}, {"measurement": "binding", "setting": "[21]", "value": "yes"}, {"measurement": "binding", "setting": "[22]", "value": "yes"}]}
